Laboratory results published in patent US10782295B2, “Cysteine-reactive ligand discovery in proteomes” (THE SCRIPPS RESEARCH INSTITUTE, priority 2013, dated 2020).

Assays:
[1] = molecular target: T1, RTN4 (Homo sapiens, UniProt Q9NQC3); assay: competitive isoTOP-ABPP, MDA-MB-231 soluble proteome; assay type: binding; settings: 100 μM LDE, 60 min; peptide YSNSALGHVNC*TIK
T1 construct: directly in native proteomes; endogenous in cells; host or cells: MDA-MB-231
T1 sequence (Q9NQC3 1-1192): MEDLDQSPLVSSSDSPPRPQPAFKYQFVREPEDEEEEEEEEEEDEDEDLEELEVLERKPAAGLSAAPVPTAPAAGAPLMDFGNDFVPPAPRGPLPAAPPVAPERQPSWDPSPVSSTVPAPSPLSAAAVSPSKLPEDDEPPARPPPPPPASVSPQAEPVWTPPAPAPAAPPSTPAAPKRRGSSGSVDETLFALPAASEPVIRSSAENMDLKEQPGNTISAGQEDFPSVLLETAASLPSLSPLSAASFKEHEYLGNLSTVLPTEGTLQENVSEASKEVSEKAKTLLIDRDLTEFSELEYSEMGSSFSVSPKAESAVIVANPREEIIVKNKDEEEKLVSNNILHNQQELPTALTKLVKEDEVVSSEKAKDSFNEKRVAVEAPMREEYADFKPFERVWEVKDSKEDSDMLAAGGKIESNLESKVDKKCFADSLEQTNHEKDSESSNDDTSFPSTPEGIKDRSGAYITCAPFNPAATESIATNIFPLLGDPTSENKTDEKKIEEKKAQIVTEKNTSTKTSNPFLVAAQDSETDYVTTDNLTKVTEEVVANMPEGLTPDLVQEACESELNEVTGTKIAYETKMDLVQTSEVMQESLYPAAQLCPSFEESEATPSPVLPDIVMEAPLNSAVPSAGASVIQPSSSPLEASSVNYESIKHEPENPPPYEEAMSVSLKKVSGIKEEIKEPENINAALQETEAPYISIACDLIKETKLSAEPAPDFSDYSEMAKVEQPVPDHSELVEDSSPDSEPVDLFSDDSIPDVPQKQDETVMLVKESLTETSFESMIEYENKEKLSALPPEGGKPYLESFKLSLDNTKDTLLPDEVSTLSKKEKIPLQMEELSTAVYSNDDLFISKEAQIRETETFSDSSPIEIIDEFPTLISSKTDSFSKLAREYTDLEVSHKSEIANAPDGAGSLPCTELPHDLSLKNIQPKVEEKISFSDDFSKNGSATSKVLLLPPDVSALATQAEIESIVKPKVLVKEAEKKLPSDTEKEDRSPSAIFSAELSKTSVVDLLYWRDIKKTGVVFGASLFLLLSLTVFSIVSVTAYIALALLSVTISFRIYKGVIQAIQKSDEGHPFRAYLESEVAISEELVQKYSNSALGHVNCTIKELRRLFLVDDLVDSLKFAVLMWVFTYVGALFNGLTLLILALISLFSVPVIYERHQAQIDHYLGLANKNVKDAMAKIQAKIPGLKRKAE
Method: (§1) Here, we envisioned that isoTOP-ABPP could be advanced to discover and quantify reactions between cysteines in proteomes and any electrophilic compound. In this advanced, ‘competitive’ version of isoTOP-ABPP (FIG. 1a), a proteome is treated with an electrophile (experimental sample) or DMSO (control sample). Both proteomic samples are then labeled with the IA probe and conjugated by CuAAC to light and heavy azide-biotin tags, respectively. The light and heavy samples are then mixed and subjected to our described isoTOP-ABPP protocol for enrichment, identification, and quantification of IA-labeled cysteines^30. Electrophile-modified cysteines are quantified by measuring the MS1 chromatographic peak ratios (R values) for heavy (DMSO-treated) over light (electrophile-treated) samples, with higher R values reflecting greater sensitivity to the electrophile. In this format, competitive isoTOP-ABPP can assay electrophiles against 1000+ cysteines in parallel directly in native proteomes without requiring any chemical modification to the electrophiles themselves.
(§2) Competitive isoTOP-ABPP experiments were performed in quadruplicate using the soluble proteome of the human breast cancer cell line MDA-MB-231 cell line. Proteomes were treated with 100 μM HNE, 15d-PGJ2, or 2-HD, for 60 minutes, followed by the IA-probe (100 μM, 60 min) A total of ˜1400 cysteine reactivities were quantified across the aggregate data set, with at least 900 cysteine reactivities quantified for each LDE (FIG. 2a) more than 750 of which were quantified for all the three electrophiles.
(§3) The MDA-MB-231 cell proteome was treated with varying concentrations of HNE (5, 10, 50, 100 and 500 μM) for 60 min and then the IA-labeling profile of each reaction was quantitatively compared to a DMSO-control sample by isoTOP-ABPP.
(§4) HNE was purchased from EMD biosciences, 15d-PGJ2 was purchased from Cayman Chemicals and 2-HD was purchased from Santa Cruz Biotechnology. Proteome samples were diluted to a 4 mg protein/mL solution in PBS. For each profiling experiment, one aliquot of the proteome sample (0.5 mL) was treated with 100 μM of LDE using 5 μL of a 10 mM stock and the other aliquot was treated with 5 μL of either ethanol (for HNE and 15d-PGJ2) or DMSO (for 2-HD) as control. For the concentration-dependent profiling experiments using HNE, aliquots of the proteomes (0.5 mL each) were treated with 5, 10, 50, 100 and 500 μM of HNE using 5 μL of 0.5, 1.0, 5, 10 and 50 mM of stock solution, respectively. After 60 minutes of treatment at room temperature, both the LDE-treated and control aliquots were passed through a NAP-5 Sephadex column (GE healthcare) to remove any unreacted LDE. The volume of each aliquot was increased to 1 mL with the concentration at 2 mg/mL after this step.
Each of the control and LDE-treated proteome samples (˜2 mg protein/mL in 1 mL volume) was treated with 100 μM of IA-probe using 10 μL of a 10 mM stock in DMSO. The labeling reactions were incubated at room temperature for 1 hour. Click chemistry (acetylene-azide cycloaddition) was performed by the addition of 100 μM of either the Heavy-TEV-Tag (for the control sample) or Light-TEV-Tag (for the LDE-treated sample) (20 μL of a 5 mM stock), 1 mM TCEP (fresh 50× stock in water), 100 μM ligand (17× stock in DMSO:t-Butanol 1:4) and 1 mM CuSO4 (50× stock in water). Samples were allowed to react at room temperature for 1 hour. After the click chemistry step, the light and heavy-labeled samples were mixed together and centrifuged (5900×g, 4 min, 4° C.) to pellet the precipitated proteins.
The pellets were washed twice in cold MeOH, after which the pellet was solubilized in PBS containing 1.2% SDS via sonication and heating (5 min, 80° C.). Samples were subjected to streptavidin enrichment of probe-labeled proteins, sequential on-bead trypsin and TEV digestion, and liquid chromatography-mass spectrometry (LC-MS) analysis according to the published isoTOP-ABPP protocol^30. […]

[2] = competitive isoTOP-ABPP, proteome-wide cysteine reactivity; assay type: binding, human; settings: for proteome reactivity profile, high sensitivity (R>5) cysteine targets: 100 μM LDE, 60 min
Method: as §1, §2, §3
By combining the R values at all 5 HNE concentrations, we could extrapolate IC50 values for […] of IA probe-labeling for ˜700 of the 1100 cysteines (FIG. 3a).
as §4, with “After 60 minutes of treatment at room temperature, both the LDE-treated and control aliquots were passed through a NAP-5 Sephadex column (GE healthcare) to remove any unreacted LDE. The volume of each aliquot was increased to 1 mL with the concentration at 2 mg/mL after this step.” left out

SMILES	R value (isoTOP-ABPP ratio heavy/light) for IA-labeled cysteine of RTN4 [1]	proteome reactivity profile, high sensitivity (R>5) cysteine targets [2]	IC50 ([2]; ~700 of 1100 cysteines, 5 HNE concentrations, read-out: IC50 for blockade of IA probe-labeling, vast majority of cysteines) [µM]
CCCCCCCCCCCCC/C=C/C=O [2-HD, 2-trans-hexadecenal]	1.1	no detectable high sensitivity (R>5) targets	–
CCCCCC(O)/C=C/C=O (stereo not shown) [4-HNE, 4-Hydroxynonenal]	11.78	targeting several cysteines in the proteome	> 100
CCCCC/C=C/C=C1/C(=O)C=C[C@@H]1C/C=C\CCCC(=O)O [PGJ2, 15-deoxy-Δ12,14-prostaglandin J2]	2.93	targeting several cysteines in the proteome	–
